PubChem BioAssay (NCI)
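Cultured in 96-well plates, cells were exposed to test compound for 48 hours across five concentrations. Here, GI50 denotes the concentration required for 50% inhibition of growth. TGI: total growth inhibition.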

Legend:
Assay in all cases: growth of human tumour cells (NCI), 48 h
[1] = test system: CAKI-1 renal
[2] = test system: SF-295 CNS
[3] = test system: HCT-15 colon
[4] = test system: SNB-19 CNS
[5] = test system: RXF 393 renal
[6] = test system: SR leukemia
[7] = test system: MCF7 breast
[8] = test system: OVCAR-8 ovarian

Row | SMILES | GI50 [1] [µM] | TGI [1] [µM] | GI50 [2] [µM] | TGI [2] [µM] | GI50 [3] [µM] | TGI [3] [µM] | GI50 [4] [µM] | TGI [4] [µM] | GI50 [5] [µM] | TGI [5] [µM] | GI50 [6] [µM] | TGI [6] [µM] | GI50 [7] [µM] | TGI [7] [µM] | GI50 [8] [µM] | TGI [8] [µM]
1 | Nc1nc2c(nnn2C2OC(CO)C(O)C2O)c(=O)[nH]1 (centres undefined) | 0.567 | > 100 | 1.21 | > 100 | 0.714 | > 100 | 7.33 | > 100 | 1.4 | 13.6 | 1.16 | > 100 | 1.42 | > 100 | 1.18 | > 100
2 | CCCC[n+]1c(/C=C\c2c(OC)cc(OC)cc2OC)ccc2ccccc21 | 2.73 | 11.5 | 0.802 | 3.25 | 2.84 | 12.3 | 0.604 | 6.79 | 1.59 | 5.87 | 0.306 | 30.3 | 0.494 | 4.73 | 0.613 | 7.69
3 | NCCCCCCCCCCCn1c2c(c3ccccc3c1=O)C(=O)c1ccccc1-2 | 8.62 | 63.5 | 2.7 | 7.9 | 5.58 | 19.4 | 6.77 | 38.9 | 24.3 | 82.3 |  |  | 8.63 | 37.9 |  | 
4 | CO[C@]12C=C/C(=C(/C(=O)OCc3cccnc3)C(=O)CCCCCCCC[C@@]3(OC)C=C/C(=C(/C(=O)OCc4cccnc4)C(=O)CCCCCCCC1)O3)O2 | 1.89 | > 50 |  |  | 1.04 | 2.82 | 3.03 | > 50 | 0.915 | 1.7 | 1.12 | > 50 | 0.504 | 8.89 | 0.959 | > 50
5 | COc1ccc(-c2nc(Nc3ccc(-c4nc5ccccc5[nH]4)cc3)nc(N3CCOCC3)n2)cc1 | 1.98 | 5.02 | 1.59 | 4.7 | 1.67 | 4.78 | 3.49 | > 100 | 0.459 | 2.51 |  |  | 2.59 | > 100 | 3.26 | 10.8
6 | CC1SC2(CCC(c3ccccc3)CC2)N(NC(=O)c2[nH]c3ccc(F)cc3c2-c2ccccc2)C1=O (centres undefined) | 4.38 | 24.5 | 12.1 | 69 | 2.43 | 11.1 | 26.6 | > 100 | 2.22 | 7.49 |  |  | 4.78 | 24.1 | 2.87 | 19
7 | O=C1C(Nc2ccc(Br)cc2)=C(I)C(=O)c2ncccc21 | 0.677 | 1.34 | 7.56 | 14.9 | 0.588 | 1.79 | 1.41 | 5.16 | 0.909 | 1.73 | 0.314 | 2.42 |  |  | 0.809 | 1.69
8 | Cn1cc(-c2csc(-c3cn(CCCCN4CCCCC4)c4ccc(F)cc34)n2)c2cccnc21 |  |  | 1.63 | 3.05 | 1.7 | 3.06 |  |  | 1.52 | 3.04 |  |  |  |  |  | 
9 | O=S(=O)(c1ccc(Br)cc1)N1CCN(S(=O)(=O)c2ccc(Br)cc2)CC1 |  | > 100 |  | > 100 |  | > 100 |  | > 100 |  | > 100 |  | > 100 |  | > 100 |  | > 100
